Reference: patent US9458203B2, “Integrin-blocking polypeptides and uses thereof” (priority 2011, dated 2016)
Like-named read-outs stand apart in the source and are kept apart here. Ends that are not written are not given here.

Experiments:
Conditions in all cases: mouse, in vivo
[1] = system: human prostate cancer DU-145; assay type: in vivo, nude mice
Procedure: (§2) Taking a certain amount of vigorously growing tumor tissue, grinding the tumor tissue under sterile conditions and preparing cell suspension at the concentration of 1×10^7 cells/ml; then hypodermicaly inoculating 0.1 ml of the cell suspension into the right axillary region of nude mice. Keeping measuring the diameter of the transplanted tumor with a vernier caliper, and randomly dividing the mice into groups when the volume of the tumor reached 100-200 mm^3. […] Measuring the tumor diameter once every other day and recording the body weight of mice simultaneously. Intravenously injecting polypeptides to mice from test groups while administering equal quantity of physiological saline to mice from the negative control group. The total medication period was 14 days. Avastin was adopted to set up a positive control group; it was administered through the tail vein once every three days while all other drugs were administered through the tail vein once a day. Leaving mice for a one-week rest after 14 days' medication, then (21 days after medication) killing the mice, surgically dissecting the tumors and measuring the weight of tumors. The tumor volume (TV) was calculated in accordance with the following formula: TV=½×a×b^2

[2] = system: human endometrial cancer HHUA
Procedure: (§3) Taking a certain amount of vigorously growing tumor tissue, grinding the tumor tissue under sterile conditions and preparing cell suspension at the concentration of 1×10^7 cells/ml; then hypodermicaly inoculating 0.1 ml of the cell suspension into the right axillary region of nude mice. Keeping measuring the diameter of the transplanted tumor with a vernier caliper, and randomly dividing the mice into groups when the volume of the tumor reached 100-200 mm^3. Observing the dynamic effect of integrin-blocking polypeptides on inhibiting the growth of the tumor by means of documenting the change of tumor diameters. Measuring the tumor diameter once every other day and recording the body weight of mice simultaneously. Intravenously injecting polypeptides to mice from test groups while administering equal quantity of physiological saline to mice from the negative control group. The total medication period was 14 days. Avastin was adopted to set up a positive control group; it was administered through the tail vein once every three days while all other drugs were administered through the tail vein once a day. Leaving mice for a one-week rest after 14 days' medication, then (21 days after medication) killing the mice, surgically dissecting the tumors and measuring the weight of tumors. The tumor volume (TV) was calculated in accordance with the following formula: TV=½×a×b^2
(§4) Taxol used in the positive control group was administered once every 3 days through tail vein injection, while drugs of all other groups were administered on daily basis through tail vein injection.

[3] = system: human gastric cancer MGC-803
From the text: Keeping measuring the diameter of the transplanted tumor with a vernier caliper, and randomly dividing the mice into groups when the volume of the tumor reached 100-200 mm^3. Observing the dynamic effect of integrin-blocking polypeptides on inhibiting the growth of the tumor by means of documenting the change of tumor diameters. Measuring the tumor diameter once every other day and recording the body weight of mice simultaneously. Intravenously injecting polypeptides to mice from test groups while administering equal quantity of physiological saline to mice from the negative control group. The total medication period was 14 days. Avastin was adopted to set up a positive control group; it was administered through the tail vein once every three days while all other drugs were administered through the tail vein once a day. Leaving mice for a one-week rest after 14 days' medication, then (21 days after medication) killing the mice, surgically dissecting the tumors and measuring the weight of tumors. The tumor volume (TV) was calculated in accordance with the following formula: TV=½×a×b^2

[4] = system: human cervical cancer HeLa; assay type: in vivo, nude mice
Procedure: as §2

melanoma B16F10 = test: transplanted melanoma B16F10 in C57BL/6 black mice
Procedure: Hypodermically injecting polypeptides and other drugs into the left axillary region of mice from the experimental groups respectively while administering only equal quantity of physiological saline to the mice from the negative control group. The total medication period was 14 days, during which cyclophosphamide was administered once every other day, taxol once every three days, low-dose polypeptide twice a day and all other drugs once a day.

human renal cancer A498 = assay type: in vivo, nude mice
Procedure: as §2

[5] = system: human laryngeal cancer Hep-2; test: heterotransplanted human laryngeal cancer Hep-2 in nude mice; assay type: in vivo
From the text: (§1) The total medication period was 14 days.

[6] = system: human bladder cancer HT1376; test: heterotransplanted human bladder cancer HT1376 in nude mice; assay type: in vivo
From the text: as §1

[7] = system: human gallbladder cancer GBC-SD
Procedure: as §3
Avastin used in the positive control group was administered once every 2 days through tail vein injection, while drugs of all other groups were administered on daily basis through tail vein injection.

[8] = system: human breast cancer MDA-MB-231
Procedure: as §3
wherein a, b refer to the length and width of the tumor respectively.
The relative tumor volume (RTV) can be calculated in accordance with the results of measurement, using the formula: RTV=Vt/V0, wherein V0 refers to the initial tumor volume measured on the date starting medication (namely d0) while Vt the tumor volume obtained through every measurement. The anti-tumor activity was evaluated by relative proliferation rate T/C (%), which was calculated in accordance with the following formula:
wherein TRTV refers to the RTV of experimental groups; CRTV refers to the RTV of the negative control group.

[9] = system: human rectal cancer Colo 320
Procedure: as §3, §4

human colon cancer HT-29 = assay type: in vivo, nude mice
Procedure: as §2

[10] = system: human liver cancer SMMC-7721
human lung cancer H460 = system: human lung cancer H460
Procedure: as §3, §4

[11] = system: human pancreatic cancer SW-1990; test: heterotransplanted human pancreatic cancer SW-1990 in nude mice; assay type: in vivo
From the text: as §1

human brain tumor SF763 = system: human brain tumor SF763
Procedure: as §3, §4

[12] = system: human thyroid cancer SW-579; assay type: in vivo, nude mice
Procedure: as §2

[13] = system: human ovarian cancer SK-OV-3; assay type: in vivo, nude mice
Procedure: as §2

sarcoma HT-1080 = assay type: in vivo, nude mice
From the text: as §1

[14] = system: human testicular cancer 5637; assay type: in vivo, nude mice
From the text: as §1

[15] = system: human esophageal cancer Ec109; assay type: in vivo, nude mice
From the text: as §1

[16] = assay type: in vivo, nude mice
From the text: as §1

## RGDGGGGFQPVLHLVALNSPLSGGMRGIRGADFQCFQQARAVGLAGTFRA [polypeptide II]
[1]
  body weight of animals, in words: no significant change in body weight
  toxic and side effects, in words: no obvious toxic and side effects
[2]
  body weight of animals, in words: no significant change in body weight
  toxic and side effects, in words: no obvious toxic and side effects
[3]
  body weight of animals, in words: no significant change in body weight
  toxic and side effects, in words: no obvious toxic and side effects
[4]
  body weight of animals, in words: no significant change in body weight
  toxic and side effects, in words: no obvious toxic and side effects
Melanoma B16F10
  body weight of animals, in words: no significant change in body weight
  toxic and side effects, in words: no obvious toxic and side effects
Human renal cancer A498
  body weight of animals, in words: no significant change in body weight
  toxic and side effects, in words: no obvious toxic and side effects
[5]
  body weight of animals, in words: no significant change in body weight
  toxic and side effects, in words: no obvious toxic and side effects
[5]; 0.75 mg/kg
  final weight: 22.88 ± 0.70 g
[5]; 1.5 mg/kg
  final weight: 22.98 ± 0.60 g
[5]; 3 mg/kg
  final weight: 22.66 ± 0.61 g
[6]
  body weight of animals, in words: no significant change in body weight
  toxic and side effects, in words: no obvious toxic and side effects
[7]
  body weight of animals, in words: no significant change in body weight
  toxic and side effects, in words: no obvious toxic and side effects
[8]
  body weight of animals, in words: no significant change in body weight
  toxic and side effects, in words: no obvious toxic and side effects
[9]
  body weight of animals, in words: no significant change in body weight
  toxic and side effects, in words: no obvious toxic and side effects
[9]; 0.75 mg/kg
  final weight: 22.85 ± 0.61 g
[9]; 1.5 mg/kg
  final weight: 23.10 ± 0.61 g
[9]; 3 mg/kg
  final weight: 22.99 ± 0.37 g
Human colon cancer HT-29
  body weight of animals, in words: no significant change in body weight
  toxic and side effects, in words: no obvious toxic and side effects
[10]
  body weight of animals, in words: no significant change in body weight
  toxic and side effects, in words: no obvious toxic and side effects
Human lung cancer H460
  body weight of animals, in words: no significant change in body weight
  toxic and side effects, in words: no obvious toxic and side effects
[11]
  body weight of animals, in words: no significant change in body weight
  toxic and side effects, in words: no obvious toxic and side effects
Human brain tumor SF763
  body weight of animals, in words: no significant change in body weight
  toxic and side effects, in words: no obvious toxic and side effects
Human brain tumor SF763; 0.75 mg/kg
  final weight: 22.95 ± 0.52 g
Human brain tumor SF763; 1.5 mg/kg
  final weight: 22.88 ± 0.52 g
Human brain tumor SF763; 3 mg/kg
  final weight: 23.24 ± 0.66 g
[12]
  body weight of animals, in words: no significant change in body weight
  toxic and side effects, in words: no obvious toxic and side effects
[13]
  body weight of animals, in words: no significant change in body weight
  toxic and side effects, in words: no obvious toxic and side effects
[13]; 0.75 mg/kg
  final weight: 23.07 ± 0.50 g
[13]; 1.5 mg/kg
  final weight: 23.32 ± 0.50 g
[13]; 3 mg/kg
  final weight: 22.97 ± 0.65 g
Sarcoma HT-1080
  body weight of animals, in words: no significant change in body weight
  toxic and side effects, in words: no obvious toxic and side effects
Sarcoma HT-1080; 0.75 mg/kg
  final weight: 22.93 ± 0.46 g
Sarcoma HT-1080; 1.5 mg/kg
  final weight: 22.95 ± 0.46 g
Sarcoma HT-1080; 3 mg/kg
  final weight: 23.04 ± 0.55 g
[14]
  toxic and side effects, in words: no obvious toxic and side effects
[15]
  body weight of animals, in words: no significant change in body weight
  toxic and side effects, in words: no obvious toxic and side effects
[16]
  body weight of animals, in words: no significant change in body weight
